Reference: PubChem BioAssay AID1259246 (Broad Institute, 2017)
Inconclusive results are not listed. The source made the active and inactive calls.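 How the source made its calls: active means valid dose-response fit whose half-maximal growth-inhibiting concentration is at or below a set limit above the top tested dose; inconclusive means flat fit with effect between 30 and 70%, or poor fit; inactive means half-maximal concentration above a set limit.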

assay: antibacterial activity against Clostridioides difficile – 10-point retest, dose response (AID 1259246); settings: Clostridioides difficile clinical isolate growth, OD600, 24 h; at 60 µM (top of the series)

Row | SMILES | activity change, negative = inhibition
1 | CO[C@@H]1CN(C)C(=O)c2ccc(NC(=O)c3ccc(-c4ccccc4)cc3)cc2OC[C@@H](C)NC[C@H]1C | 25.2% (inactive)
2 | N#C[C@@H]1[C@@H](c2ccc(C#Cc3ccccc3F)cc2)[C@H](CO)N1C(=O)C1CCCCC1 | 9.57% (inactive)
3 | COc1ccccc1C#Cc1ccc([C@H]2[C@@H](C#N)N(C(=O)C3CCCCC3)[C@H]2CO)cc1 | 5.31% (inactive)
4 | C[C@H](CO)N1C[C@H](C)[C@@H](CN(C)S(C)(=O)=O)OCCCC[C@H](C)Oc2ccc(NC(=O)Nc3cccc4ccccc34)cc2C1=O | 9.57% (inactive)
5 | CN(C)CC(=O)N1[C@H](C#N)[C@H](c2ccc(C#CC3CCCCC3)cc2)[C@H]1CO | 6.71% (inactive)

same assay, conditions: Clostridioides difficile clinical isolate growth, OD600, 24 h; at 110 µM (top of the series)

Row | SMILES | activity change, negative = inhibition
6 | O=C(C[C@@H]1CC[C@H]2[C@@H](COC[C@H](O)CN2S(=O)(=O)c2ccc(Cl)cc2)O1)NCc1ccc(Cl)c(Cl)c1 | 55.9% (inactive)

same assay, conditions: Clostridioides difficile clinical isolate growth, OD600, 24 h; at 120 µM (top of the series)

Row | SMILES | activity change, negative = inhibition
7 | O=C(C[C@H]1C[C@H]2c3cc(NC(=O)Nc4ccc(F)cc4)ccc3O[C@H]2[C@H](CO)O1)NC1CCCCC1 | 2.71% (inactive)
8 | C[C@@H]1CN([C@H](C)CO)C(=O)Cc2cc(NC(=O)C3CCCCC3)ccc2O[C@@H]1CN(C)Cc1ccc(-c2ccccc2)cc1 | 25.3% (inactive)
9 | C[C@@H]1CN([C@@H](C)CO)S(=O)(=O)c2ccc(C#CCN(C)C)cc2O[C@@H]1CN(C)Cc1ccc(F)cc1 | 4.72% (inactive)
10 | C[C@@H]1CN([C@H](C)CO)S(=O)(=O)c2ccc(C3=CCCCC3)cc2O[C@H]1CN(C)Cc1cccnc1 | 19% (inactive)
11 | C[C@H]1CN([C@@H](C)CO)C(=O)Cc2cc(NC(=O)C3CC3)ccc2O[C@H]1CN(C)Cc1ccc(-c2ccccc2)cc1 | 18.3% (inactive)
12 | C[C@@H]1CN([C@@H](C)CO)C(=O)Cc2cc(NC(=O)C3CC3)ccc2O[C@H]1CN(C)Cc1ccc(-c2ccccc2)cc1 | 25% (inactive)
13 | CNC[C@H]1Oc2cc(Br)ccc2S(=O)(=O)N([C@@H](C)CO)C[C@H]1C | 5.27% (inactive)
14 | C[C@@H]1CN([C@H](C)CO)C(=O)c2cccc(NC(=O)Nc3ccc(C(F)(F)F)cc3)c2O[C@H]1CN(C)Cc1ccc(-c2ccccc2)cc1 | 8.44% (inactive)
15 | C[C@H](CO)N1C[C@H](C)[C@@H](CN(C)C(=O)Cc2cccnc2)Oc2cc(C#Cc3ccccc3F)ccc2S1(=O)=O | 40.8% (inactive)
16 | Cc1ccc(S(=O)(=O)N[C@@H]2CC[C@H](CCNS(=O)(=O)Cc3ccccc3)O[C@@H]2CO)cc1 | -5.03% (inactive)
17 | O=C(C[C@H]1C[C@H]2c3cc(NC(=O)C4CCC4)ccc3O[C@H]2[C@@H](CO)O1)NCc1ccc(Cl)cc1 | 2.85% (inactive)
18 | CC(C)NC(=O)Nc1ccc2c(c1)CC(=O)N([C@H](C)CO)C[C@@H](C)[C@@H](CN(C)Cc1ccc(-c3ccccc3)cc1)O2 | 20.5% (inactive)
19 | COc1ccc(S(=O)(=O)Nc2cccc3c2O[C@@H](CN(C)S(=O)(=O)c2c(C)noc2C)[C@H](C)CN([C@H](C)CO)C3=O)cc1 | -3.81% (inactive)
20 | CC(C)CC#Cc1ccc2c(c1)O[C@@H](CN(C)Cc1ccc3c(c1)OCO3)[C@@H](C)CN([C@H](C)CO)S2(=O)=O | 23.6% (inactive)
21 | COc1ccc(NC(=O)Nc2cccc3c2O[C@H](CN(C)C(=O)NC2CCCCC2)[C@@H](C)CN([C@H](C)CO)C3=O)cc1 | -0.118% (inactive)
22 | CNC[C@H]1Oc2c(N)cccc2C(=O)N([C@@H](C)CO)C[C@H]1C | -0.016% (inactive)
23 | O=C(C[C@H]1C[C@@H]2c3cc(NC(=O)NC4CCCC4)ccc3O[C@@H]2[C@@H](CO)O1)NCc1ccc(Cl)cc1 | 8.51% (inactive)
24 | C[C@H](CO)N1C[C@H](C)[C@@H](CN(C)Cc2ccc(-c3ccccc3)cc2)Oc2c(NC(=O)Nc3ccc4c(c3)OCO4)cccc2C1=O | 2.74% (inactive)
25 | CC(C)C#Cc1ccc2c(c1)O[C@H](CN(C)CC1CCOCC1)[C@H](C)CN([C@H](C)CO)S2(=O)=O | 10.2% (inactive)
26 | CNC[C@H]1Oc2c(NC(=O)Nc3ccc4c(c3)OCO4)cccc2C(=O)N([C@@H](C)CO)C[C@H]1C | 4.27% (inactive)
27 | O=C(C[C@@H]1C[C@@H]2c3cc(NC(=O)Nc4ccc(F)cc4)ccc3O[C@@H]2[C@@H](CO)O1)NC1CCCCC1 | -8.47% (inactive)
28 | CO[C@H]1CN(C)C(=O)c2ccc(NC(=O)c3nc4ccccc4s3)cc2OC[C@@H](C)N(Cc2ccncc2)C[C@H]1C | 20.7% (inactive)

Row | SMILES | activity change, negative = inhibition
29 | C[C@@H]1CN([C@@H](C)CO)C(=O)Cc2cc(NC(=O)CCCN(C)C)ccc2O[C@H]1CN(C)C(=O)Nc1ccccc1 | -1.61% (inactive)
30 | C[C@H](CO)N1C[C@H](C)[C@H](CN(C)Cc2cccnc2)Oc2cc(C#CC3CCCCC3)ccc2S1(=O)=O | 24.1% (inactive)
31 | CC1=CC2(CO)C(=O)[C@]3(CO3)[C@H]1[C@H]1[C@]2(C)C=C(CO)C(=O)[C@]12CO2 | 10.8% (inactive)
32 | C[C@H](CO)N1C[C@H](C)[C@H](CN(C)Cc2ccc(-c3ccccc3)cc2)Oc2c(NC(=O)Nc3ccc(C(F)(F)F)cc3)cccc2C1=O | 16.3% (inactive)
33 | O=C(C[C@@H]1C[C@H]2c3cc(NC(=O)Nc4ccc(F)cc4)ccc3O[C@H]2[C@@H](CO)O1)NC1CCCCC1 | -2.82% (inactive)
34 | CO[C@@H]1CN(C)C(=O)c2ccc(NC(=O)c3nc4ccccc4s3)cc2OC[C@@H](C)N(Cc2ccncc2)C[C@H]1C | 28.6% (inactive)
35 | C[C@@H]1CN([C@@H](C)CO)C(=O)c2cc(NC(=O)NC3CCCCC3)ccc2O[C@@H]1CN(C)C(=O)Nc1ccc(F)cc1 | 58.5% (inactive)
36 | C[C@@H]1CN([C@H](C)CO)C(=O)c2cccc(NC(=O)Nc3ccc(C(F)(F)F)cc3)c2O[C@@H]1CN(C)C(=O)NC1CCCCC1 | 7.85% (inactive)
37 | C[C@H](CO)N1C[C@H](C)[C@@H](CN(C)Cc2ccc(Oc3ccccc3)cc2)Oc2c(NC(=O)Nc3ccccc3)cccc2C1=O | 23.8% (inactive)
38 | C/C=C/c1ccc2c(c1)O[C@@H](CN(C)Cc1ccc(C(=O)O)cc1)[C@H](C)CN([C@@H](C)CO)S2(=O)=O | -3.63% (inactive)
39 | C[C@@H]1CCCCO[C@H](CN(C)S(=O)(=O)c2ccc(F)cc2)[C@H](C)CN([C@H](C)CO)C(=O)c2cc(NC(=O)Nc3cccc4ccccc34)ccc2O1 | 23.1% (inactive)
40 | C[C@@H]1CCCCO[C@@H](CN(C)S(=O)(=O)c2ccc(F)cc2)[C@@H](C)CN([C@@H](C)CO)C(=O)c2cc(NC(=O)Nc3cccc4ccccc34)ccc2O1 | 12.1% (inactive)
41 | C[C@H]1CN([C@@H](C)CO)C(=O)c2cccc(NC(=O)Nc3ccc(C(F)(F)F)cc3)c2O[C@@H]1CN(C)Cc1ccc(-c2ccccc2)cc1 | 31.9% (inactive)
42 | Cc1ccc(-c2ccc3c(c2)O[C@@H](CN(C)Cc2ccncc2)[C@H](C)CN([C@@H](C)CO)S3(=O)=O)cc1 | 21.6% (inactive)
43 | C[C@@H]1CN([C@H](C)CO)C(=O)Cc2cc(NC(=O)C3CC3)ccc2O[C@@H]1CN(C)Cc1ccc(Oc2ccccc2)cc1 | 22.6% (inactive)
44 | C[C@H](CO)N1C[C@H](C)[C@H](CN(C)Cc2ccc(C(=O)O)cc2)Oc2cc(/C=C/c3ccccc3)ccc2S1(=O)=O | -7.29% (inactive)
45 | C[C@H](CO)N1C[C@H](C)[C@@H](CN(C)C(=O)Nc2cccc3ccccc23)Oc2ccc(NC(=O)CCN3CCOCC3)cc2C1=O | 38.8% (inactive)
46 | COc1ccc(NC(=O)Nc2cccc3c2O[C@H](CN(C)Cc2ccc(Oc4ccccc4)cc2)[C@@H](C)CN([C@@H](C)CO)C3=O)cc1 | 19.2% (inactive)
47 | CC(C)CC#Cc1ccc2c(c1)O[C@H](CN(C)Cc1ccccc1)[C@@H](C)CN([C@@H](C)CO)S2(=O)=O | 35.7% (inactive)
48 | O=C(C[C@H]1C[C@H]2c3cc(NC(=O)Nc4ccccc4)ccc3O[C@H]2[C@H](CO)O1)NC1CCCC1 | -1.4% (inactive)
49 | O=C(C[C@H]1C[C@@H]2c3cc(NS(=O)(=O)c4ccc(F)cc4)ccc3O[C@@H]2[C@H](CO)O1)NCc1ccc(-c2ccccc2)cc1 | 25.5% (inactive)
50 | O=C(C[C@@H]1C[C@@H]2c3cc(NC(=O)Nc4ccccc4)ccc3O[C@@H]2[C@@H](CO)O1)NC1CCCC1 | 2.79% (inactive)

same assay, conditions: Clostridioides difficile clinical isolate growth, OD600, 24 h; at 135 µM (top of the series)

Row | SMILES | activity change, negative = inhibition
51 | C[C@@H]1CN([C@H](C)CO)C(=O)Cc2cc(NC(=O)C3CC3)ccc2O[C@@H]1CN(C)Cc1ccc(-c2ccccc2)cc1 | 20.9% (inactive)
52 | C[C@@H]1CN([C@@H](C)CO)C(=O)Cc2cc(NS(C)(=O)=O)ccc2O[C@@H]1CN(C)Cc1ccc(Oc2ccccc2)cc1 | 7.12% (inactive)
53 | C[C@@H]1CN([C@@H](C)CO)C(=O)Cc2cc(NC(=O)CCCN(C)C)ccc2O[C@H]1CN(C)C | -6.21% (inactive)
54 | C[C@@H]1CN([C@@H](C)CO)C(=O)c2cc(NC(=O)Nc3cccc4ccccc34)ccc2O[C@@H](C)CCCCO[C@@H]1CN(C)S(=O)(=O)c1ccc(F)cc1 | 17.6% (inactive)
55 | C[C@@H]1CN([C@H](C)CO)C(=O)Cc2cc(NC(=O)C3CC3)ccc2O[C@H]1CN(C)C | 32.9% (inactive)
56 | C[C@@H]1CN([C@@H](C)CO)C(=O)Cc2cc(NS(C)(=O)=O)ccc2O[C@@H]1CN(C)Cc1ccc(-c2ccccc2)cc1 | 16.9% (inactive)
57 | C[C@@H]1CN([C@H](C)CO)C(=O)Cc2cc(NC(=O)C3CC3)ccc2O[C@@H]1CN(C)Cc1ccc(C(F)(F)F)cc1 | 18% (inactive)
58 | C[C@H]1CN([C@@H](C)CO)C(=O)Cc2cc(NC(=O)C3CC3)ccc2O[C@@H]1CN(C)Cc1ccc(-c2ccccc2)cc1 | 17.1% (inactive)
59 | O=C(C[C@H]1C[C@@H]2c3cc(NC(=O)Nc4ccccc4)ccc3O[C@@H]2[C@H](CO)O1)NC1CCCC1 | -0.545% (inactive)
